Key:
[1] = 3T3 in vitro phototoxicity assay (Neutral Red uptake); format: cell-based, mouse; conditions: mouse, Balb/c 3T3 mouse fibroblasts (clone A 31, ATCC CCL 163); approx. 5 J/cm^2 UVA light
Excerpt: (§1) Phototoxicity is defined as a toxic response that is elicited after the first exposure of the skin to certain chemicals and subsequent exposure to light, or that is induced similarly by skin irradiation after systemic administration of a chemical substance. The assay used in this study is designed to detect the phototoxic potential of a chemical by using a simple in vitro cytotoxicity assay with Balb/c 3T3 mouse fibroblasts. The principle of this test is a comparison of the cytotoxicity of a chemical when tested with and without exposure to a non-toxic dose of UVA-light. Cytotoxicity is expressed as a dose dependent reduction of the growth rate of cells as determined by uptake of the vital dye Neutral Red one day after treatment.
(§2) Preparation of Stock Solution and Dosage of Test Item A small amount of substance was weighed and formulated freshly in DMSO just before the start of the exposure of the cells. This stock solution or appropriate dilutions with DMSO were added to the cell suspensions to obtain the required final concentrations. All solutions were generally prepared in Eppendorf caps and discarded after use.
(§3) • Chlorpromazine (HCL) (Sigma, Batch/Lot No.: 120M1328V), test concentration: 300 μg/mL, Solvent: PBS/3% DMSO
(§4) For this study the Neutral Red uptake (NRU) assay of Borenfreund and Puemer (Borenfreund, E, Puemer J A. Toxicity determined in vitro by morphological alterations and Neutral Red absorption. Toxicology Lett. 1985; 24:119-124) modified according to INVITTOX protocol No 78 (ERGATT/FRAME data bank of in vitro techniques in toxicology. INVITTOX PROTOCOL No 78. 3T3 NRU Phototoxicity Assay. March 1994) has been adapted to examine a possible phototoxic potential of the test item. This assay is based on the active uptake of the Neutral Red dye into the lysosomes of cultured murine fibroblasts. Because lysosomal membranes are known to be a site of action of many phototoxic compounds, this assay can provide a measure of potential for phototoxic injury.
(§5) A murine fibroblasts clone A 31 (ATCC no. CCL 163—passage No. 108) were cultured in 175 cm^2 tissue culture grade flasks, containing sDMEM (Dulbecco's […] Essential Medium, supplemented with 10% fetal calf serum, 2 mM L-glutamine, 100 units/ml Penicillin and 100 μg/ml streptomycin) at 37° C. in a humidified atmosphere of 6% CO2. Before cells approach confluence they were removed from flasks by trypsinisation. Prior to use in an assay, the cells were transferred to 96-well microtiter plates at a concentration of 1×10^4 cells/well in 100 μl volumes of sDMEM and allowed to attach for 24 h. […]
(§6) For each test item the microtiter plates were prepared according to Table 6. […] UV flux was measured with a UV-meter (Dr. Gröbel RM21). […]

[2] = system: Balb/c 3T3 mouse fibroblasts; experiment: as above; format: cell-based; conditions: IC50 with and without UV exposure compared; cut-off >5
Excerpt: as §1, §2, §3, §4, §5, §6

SMILES | IC50 at 1 h [1] [µg/mL] | Phototoxicity factor [2]
Cc1cc(N2CC[C@H](c3ccc(N4CCOC[C@@H](N)C4)cn3)[C@@H](C)C2)c2cnn(C)c2n1 [Example 40, (6S)-4-[6-[(3R,4S)-1-(1,6-dimethylpyrazolo[3,4-b]pyridin-4-yl)-3-methyl-4-piperidyl]-3-pyridyl]-1,4-oxazepan-6-amine] | > 120 | 1
Cc1cc(N2CC[C@@H](c3ncc(N4CCOC[C@@H](N)C4)cc3C)[C@H](C)C2)c2cnn(C)c2n1 [Example 28, (6S)-4-[6-[(3S,4R)-1-(1,6-dimethylpyrazolo[3,4-b]pyridin-4-yl)-3-methyl-4-piperidyl]-5-methyl-3-pyridyl]-1,4-oxazepan-6-amine] | > 120 | 1

From patent US20240360126A1, “PYRAZOLO[3,4-B]PYRIDINE COMPOUNDS FOR THE TREATMENT OF AUTOIMMUNE DISEASE” (Hoffmann-La Roche Inc., priority 2021, published 2024)
